Measurements as given in article PMC9571594, “Development of Semisynthetic Apoptosis-Inducing Agents Based on Natural Phenolic Acids Scaffold: Design, Synthesis and In-Vitro Biological Evaluation” (Molecules, 2022).
Several values for one entry are separate records, joined by “and”; a condition that tells them apart may be missing. Equal entries are not always repeated. Where two headings read alike, the source gives them in different places.

Experiments:
Type in all cases: cell-based
Caco-2 cancer cell line = experiment: MTT cell viability assay, Caco-2; settings: 48 h; for IC50: MTT, average of triplicates, semi-synthesized compounds (Table 3), read-out: IC50 (μM) on Caco-2 cancer cell line
Experimental: MCF-7 cells (Human breast adenocarcinoma), HepG2 (human hepatocellular carcinoma), A549 (human lung adenocarcinoma), Caco-2 (colon carcinoma), PANC-1 (human pancreatic cancer), and Vero cells (derived from normal kidney cells) were supplied by (Holding Company for Biological Products and Vaccines VACSERA; Giza, Egypt). The cells were cultured in PRMI 1640 medium (Lonza, Switzerland) supplemented with 10% fetal bovine serum (Gibco), 1% penicillin and 1% streptomycin (Sigma Aldrich, Saint Louis, MO, USA) at 37 °C under an atmosphere of 5% CO2 and 95% air.
The effect of parent compounds and their derivatives were assessed by (3-(4,5-dimethylthiazol-2-yl)-2,5diphenyl-tetrazolium bromide) MTT assay. […] After a merged sheet of cells developed, the growth media was decanted from the 96-well microtiter and refilled with different concentrations of compounds (µg/mL), and the plate was incubated at 37 °C for 48 h to minimize exposure to the dissolving agent (Supporting Information).
MTT solution (BIO BASIC CANADA INC) was prepared [5 mg/mL in phosphate buffered saline (PBS)], added to each well and incubated for 4 h, then after removing the media, 200 μL of DMSO was added to each well to solubilize the formazan crystals and the optical density of the formazan product was measured at 560 nm using microplate reader (mindray, MR-96A). The results were calculated as the mean of the three independent experiments. […]
Determination of sample cytotoxicity on cells (MTT protocol) […]
well) and incubated at 37°C for 24 hours to develop a complete monolayer sheet.
2- Growth medium was decanted from 96 well micro titer plates after confluent sheet of cells were formed, cell monolayer was washed twice with wash media.
3- two-fold dilutions of tested sample was made in RPMI medium with 2% serum […]
4- 0.1 ml of each dilution was tested in different wells leaving 3 wells as control, receiving only maintenance medium.
5- Plate was incubated at 37°C and examined. Cells were checked for any physical signs of toxicity, e.g. partial or complete loss of the monolayer, rounding, shrinkage, […]
6- MTT solution was prepared (5mg/ml in PBS) (BIO BASIC CANADA INC).
8- 20ul MTT solution were added to each well. Place on a shaking table, 150rpm for 5 minutes, to thoroughly mix the MTT into the media.
10) Dump off the media. (dry plate on paper towels to remove residue if necessary. […] 9 ش - ايلعلا هبضهلا - مطقملا / ىسيئرلا لمعملا […]

Caco-2 cells [1] = experiment: Cell-cycle analysis by flow cytometry; settings: for %G0–G1 / %G2/M / %S / %Pre-G1: Caco-2 cells; for %G0–G1 / %G2/M / %S: cell-cycle distribution after treatment; for %Pre-G1: Pre-G1 = apoptotic population
Experimental: The potential candidates with anti-tumor effect on the Caco-2 cell line along with a high SI were chosen for cell-cycle analysis. The cell-cycle distribution and cell death were analyzed using Annexin V-FITC/PI staining and flow cytometry (Table 4, Figure 4).
In order to determine the percentage of viable, apoptotic and necrotic cells after treatment with our compounds, double-staining with fluorescein isothiocyanate (FITC) and PI was performed. Annexin V-FITC Apoptosis Detection Kit (BioVision, CA, USA) was used. Briefly, cultured Caco-2 were treated with the tested compounds or DMSO for 24h. Cells were then collected by centrifugation at 2000 rpm for 5 min, and the pellet was washed with PBS then centrifuged again at 2000 rpm for 5 min then resuspended in 500μL of the kit’s binding buffer before adding the Annexin V-FITC and PI. The cells were then incubated at room temperature in the dark for 5 min. […]
Assay : Cell Cycle Analysis
Kit used : ab139418_Propidium Iodide Flow Cytometry Kit/BD
Assay samples :Cell culture
(§1) Cpd. No. Cpd. No. Cpd. No. Cpd. No.

Caco-2 cells [2] = experiment: Annexin V-FITC/PI apoptosis assay by flow cytometry; set-up: key: % of cells; settings: annexin-V FITC/PI staining, 24h
Experimental: In order to determine the percentage of viable, apoptotic and necrotic cells after treatment with our compounds, double-staining with fluorescein isothiocyanate (FITC) and PI was performed. Annexin V-FITC Apoptosis Detection Kit (BioVision, CA, USA) was used. Briefly, cultured Caco-2 were treated with the tested compounds or DMSO for 24h. Cells were then collected by centrifugation at 2000 rpm for 5 min, and the pellet was washed with PBS then centrifuged again at 2000 rpm for 5 min then resuspended in 500μL of the kit’s binding buffer before adding the Annexin V-FITC and PI. The cells were then incubated at room temperature in the dark for 5 min. Annexin V-FITC binding was measured using FACS Calibur flow cytometer (BD biosciences, USA) (Ex = 488 nm, Em = 533 nm, FL1 filter for annexin and FL2 filter for PI).

MMP-2 = experiment: RT-qPCR gene expression of MMP-2; settings: for MMP2 Fold Change: Caco2, relative to cont.Caco2 = 1
Experimental: (§2) The treated cells were harvested and the total RNA was extracted using RNeasy Mini Kit (Qiagen) according to the manufacturer’s instruction. The primers of the required genes (Table 6) were used for SYBR Green qRT-PCR using a one-step RT-PCR kit with SYBR Green (Bio-Rad). qRT-PCR was performed on Rotor Gene Q (Qiagen). […] Rotor-Gene 6000 Series Software was used for data analysis. and their HGNC ID was added (Table 6)
(§3) Researcher : Dr/Noura email: mob.
(§4) Reader : Rotorgene RT- PCR system
(§5) Kit used : Qiagen RNA extraction/BioRad syber green PCR MMX
(§6) Assay samples :Cell culture Lysate
as §1

MMP-9 = experiment: RT-qPCR gene expression of MMP-9; settings: for MMP9 Fold Change: Caco2, relative to cont.Caco2 = 1
Experimental: as §2, §3, §4, §5, §6, §1

Compound	IC50 (Caco-2 cancer cell line; Homo sapiens, Caco-2) [µM]	%G0–G1 (Caco-2 cells [1]) [%]	%G2/M (Caco-2 cells [1]) [%]	%S (Caco-2 cells [1]) [%]	%Pre-G1 (Caco-2 cells [1])	Apoptosis Total (Caco-2 cells [2])	Early Apoptosis (Caco-2 cells [2])	Necrosis (Caco-2 cells [2])	further results
O=C(/C=C/c1ccc(O)c(O)c1)N1CCN(c2ccccc2)CC1 [Compound 3, (E)-3-(3,4-Dihydroxyphenyl)-1-(4-phenylpiperazin-1-yl)prop-2-en-1-one]	80	–	–	–	–	–	–	–	–
O=C(/C=C/c1ccc(O)c(O)c1)Nc1ccc(O)cc1 [Compound 4, (E)-3-(3,4-Dihydroxyphenyl)-N-(4-hydroxyphenyl)acrylamide]	70	–	–	–	–	–	–	–	–
Cc1ccc(NC(=O)/C=C/c2ccc(O)c(O)c2)cc1 [Compound 5, (E)-3-(3,4-Dihydroxyphenyl)-N-(p-tolyl)acrylamide]	60	41.52 ± 2.61	26.86 ± 2.75	31.62 ± 1.79	7.56 ± 0.39%	7.56	2.59	1.04	%G0–G1 (Caco-2 cells [1]; listed as CA3): 41.52%; %G2/M (Caco-2 cells [1]; listed as CA3): 26.86%; %S (Caco-2 cells [1]; listed as CA3): 31.62%; %Pre-G1 (Caco-2 cells [1]; listed as CA3): 7.56%; Late Apoptosis (Caco-2 cells [2]): 3.93
O=C(/C=C/c1ccc(O)c(O)c1)NC1CCCCC1 [Compound 6, (E)-N-Cyclohexyl-3-(3,4-dihydroxyphenyl)acrylamide]	50	–	–	–	–	–	–	–	–
O=C(/C=C/c1ccc(O)c(O)c1)Nc1ccc(Br)cc1 [Compound 7, (E)-N-(4-Bromophenyl)-3-(3,4-dihydroxyphenyl)acrylamide]	20	28.68 ± 1.64	44.91 ± 3.42	26.41 ± 2.15	18.26% and 18.26 ± 1.42%	18.26	4.75	2.14	%G0–G1 (Caco-2 cells [1]; listed as CA6): 28.68%; %G2/M (Caco-2 cells [1]; listed as CA6): 44.91%; %S (Caco-2 cells [1]; listed as CA6): 26.41%; MMP2 Fold Change (MMP-2): 0.16±0.004 Fold Change; expression of MMP2 (in words) (MMP-2; Figures 8 and 9): greatest inhibition; MMP9 Fold Change (MMP-9): 0.29±0.006 Fold Change; expression of MMP9 (in words) (MMP-9; Figures 8 and 9): greatest inhibition
COc1ccc(NC(=O)/C=C/c2ccc(O)c(O)c2)cc1 [Compound 8, (E)-N-(4-Methoxyphenyl)-3-(3,4-dihydroxyphenyl)acrylamide]	80	–	–	–	–	–	–	–	–
O=C(/C=C/c1ccc(O)c(O)c1)NCc1ccccc1 [Compound 9, (E)-N-Benzyl-3-(3,4-dihydroxyphenyl)acrylamide]	30	38.51 ± 1.95	30.05 ± 2.59	31.44 ± 2.87	9.62 ± 0.37%	9.62	3.72	1.36	%G0–G1 (Caco-2 cells [1]; listed as CA9): 38.51%; %G2/M (Caco-2 cells [1]; listed as CA9): 30.05%; %S (Caco-2 cells [1]; listed as CA9): 31.44%; %Pre-G1 (Caco-2 cells [1]; listed as CA9): 9.62%; Late Apoptosis (Caco-2 cells [2]): 4.54
O=C(/C=C/c1ccc(O)c(O)c1)Nc1ccc(Cl)cc1 [Compound 10, (E)-N-(4-Chlorophenyl)-3-(3,4-dihydroxyphenyl)acrylamide]	9	29.75 ± 1.73	41.98 ± 2.18	28.27 ± 1.99	23.42% and 23.42 ± 2.12%	23.42	7.59	3.14	%G0–G1 (Caco-2 cells [1]; listed as CA11): 29.75%; %G2/M (Caco-2 cells [1]; listed as CA11): 41.98%; %S (Caco-2 cells [1]; listed as CA11): 28.27%
Nc1ccccc1NC(=O)/C=C/c1ccc(O)c(O)c1 [Compound 11, (E)-N-(2-Aminophenyl)-3-(3,4-dihydroxyphenyl)acrylamide]	10	41.09 ± 2.76	25.55 ± 2.47	33.36 ± 2.73	14.04% and 14.04 ± 0.95%	14.04	2.47	2.07	%G0–G1 (Caco-2 cells [1]; listed as CA12): 41.09%; %G2/M (Caco-2 cells [1]; listed as CA12): 25.55%; %S (Caco-2 cells [1]; listed as CA12): 33.36%; Late Apoptosis (Caco-2 cells [2]; listed as CA12): 9.5; MMP2 Fold Change (MMP-2): 0.54±0.014 Fold Change; MMP9 Fold Change (MMP-9): 0.30±0.006 Fold Change
COc1ccc(/C=C/C(=O)N2CCN(c3ccccc3)CC2)cc1O [Compound 12, (E)-3-(3-Hydroxy-4-methoxyphenyl)-1-(4-phenylpiperazin-1-yl)prop-2-en-1-one]	40	–	–	–	–	–	–	–	–
COc1ccc(NC(=O)/C=C/c2ccc(OC)c(O)c2)cc1 [Compound 13, (E)-3-(3-Hydroxy-4-methoxyphenyl)-N-(4-methoxyphenyl)acrylamide]	80	–	–	–	–	–	–	–	–
COc1ccc(NC(=O)/C=C/c2ccc(O)c(OC)c2)cc1 [Compound 16, (E)-3-(4-Hydroxy-3-methoxyphenyl)-N-(4-methoxyphenyl)acrylamide]	80	–	–	–	–	–	–	–	–
COc1ccc(/C=C/C(=O)Nc2ccccc2N)cc1O [Compound 20, (E)-N-(2-Aminophenyl)-3-(3-hydroxy-4-methoxyphenyl)acrylamide]	–	39.12 ± 2.58	26.84 ± 2.34	34.04 ± 2.69	8.62 ± 0.69%	8.62	2.19	1.24	apoptotic population compared to the parent compound (Caco-2 cells [1]; Caco-2, in words, versus parent 1 or 2): non-significant decrease; %G0–G1 (Caco-2 cells [1]; listed as FA12): 39.12%; %G2/M (Caco-2 cells [1]; listed as FA12): 26.84%; %S (Caco-2 cells [1]; listed as FA12): 34.04%; %Pre-G1 (Caco-2 cells [1]; listed as FA12): 8.62%; Late Apoptosis (Caco-2 cells [2]): 5.19; MMP2 Fold Change (MMP-2): 0.68±0.018 Fold Change; MMP9 Fold Change (MMP-9): 0.45±0.009 Fold Change
COc1cccc2c1C(=O)c1c(O)c3c(c(O)c1C2=O)C[C@@](O)(C(=O)CO)C[C@@H]3O[C@H]1C[C@H](N)[C@H](O)[C@H](C)O1 [Doxorubicin]	–	–	–	–	–	–	–	–	IC50 (μM) ± SD Caco-2 (Caco-2 cancer cell line): 0.17 ± 1.1 µM
(E)-3-(3-Hydroxy-4-methoxyphenyl)-N-(p-tolyl)acrylamide [Compound 14]	–	–	–	–	16.51% and 16.51 ± 0.63%	16.51	3.99	2.26	IC50 (Caco-2 cancer cell line): 50 µM
